Results as given in US20100221341A1, “Alanine-Based Peptide Hydrogels” (Drexel University, priority 2009, published 2010).
Ends that are not written are not given here.

Key:
Format in all cases: physicochemical
[1] = Rheology (viscosity) of peptide solutions with NaCl
Experimental: Rheology measurements were made for solutions of (AAKA)4 (concentration of 5 mg/mL or 3.5 mM) in 0.5 M and 1.0 M NaCl, as shown in FIG. 16. […] The shear-thinning behavior observed in these experiments was consistent with other oligopeptides hydrogels (Schneider, […], J. Am. Chem. Soc. 124:15030).
Another rheology experiment is illustrated in FIG. 17, for a solution of (AAKA)4 (concentration of 5 mg/mL) in 0.0 M, 1.0 M and 2.0 M NaCl. FIG. 17 illustrates three experimental curves for each concentration of NaCl.
Yet another rheology experiment is illustrated in FIG. 18, for a 5 mg/mL and a 10 mg/mL solution of (AAKA)4 in 1 M NaCl. FIG. 18 illustrates three experimental curves for each value of concentration of peptide.
As illustrated above, (AAKA)4 was conformationally unstable upon dissolution in water, prior to the addition of salt and consequent hydrogel formation. […] This is illustrated in FIG. 19, where the viscosity of a 5 mg/mL (AAKA)4 solution comprising 2 M NaCl was compared with the viscosity of a similar peptide solution wherein NaCl was added after ˜24 hours.

Hydrogel formation = test: Hydrogel formation
Experimental: For the FT-IR (Fourier transform infrared), CD (circular dichroism), and Raman measurements of Ac-(AAKA)4-NH2, unless otherwise described, the peptide was dissolved in acidic D2O (pD=1.4) at a concentration of ˜15 mg/mL (˜10.5 mM), where the D2O was made acidic by the addition of DCl (Sigma-Aldrich). […] The measurements for the gelated state of the 12-mer, Ac-(AAKA)3-NH2, were carried out similarly, at a concentration of ˜27 mg/mL in D2O (pD=1.4). For the ECD measurements, Ac-(AAKA)3-NH2 and (AAKA)4 were dissolved in acidic D2O at concentrations of 2.4 mg/mL and 1 mg/mL, respectively, and the samples were measured at room temperature.
NaCl was added to a freshly aqueous solution of (AAKA)4, wherein the concentration of peptide was equal to or higher than 0.5 wt %. […] An example of such hydrogel is illustrated in FIG. 15.

[2] = Temperature-dependent UV-CD spectra; settings: 3.5 mM in D2O, pH 2.7; intersection of two fitted straight lines
Experimental: (§1) The Raman spectra were obtained with the 442 nm (40 mW) excitation from a HeCd laser (Model IK 4601R-E, Kommon Electrics, USA) and recorded with a RM 100 Remishaw confocal microscope. The UV ECD spectra in the wavelength range of 180-250 nm of peptides were measured with a JASCO J-810 spectrapolarimeter in a 0.1 mm quartz cell with 0.05 nm resolution. Samples were placed in a nitrogen purged JASCO CD module. The temperature at the cuvette was controlled by means of a Peltier-type heating system (accuracy ±1° C.) set to 20° C. The spectra were obtained by averaging ten scans and were collected as ellipticity as a function of wavelength, and converted to units of molar absorptivities via the equation: […]
The temperature-dependent UV-CD spectra of 3.5 mM Ac-(AAKA)4-NH2 measured at acid pH is illustrated in FIG. 8. […] The inset of FIG. 8 illustrates the change of the Δε measured at 214.5 nm as a function of temperature, reflecting the decrease of the β-sheet content with increasing temperature.
Two different modes were found in the relationship between the n-sheet content and temperature. The β-sheet content, as evaluated by Δε, […] linearly with temperatures below 300 K and remained almost constant after 350 K. The transition temperature between these two modes was around 320 K, as is defined by the intersection between the two straight lines, fitting the initial and final behaviors.

[3] = UV-CD kinetics after dissolution in D2O, read at 198 nm and 215 nm
Experimental: as §1
The UV-CD spectra of Ac-(AAKA)4-NH2 was acquired at various times after dissolution in deuterated water (D2O). The results are illustrated in FIG. 4. Initially a significant percentage of β-structure was observed, and in a time-dependent manner more flexible PPII-like conformations were observed.
The UV-CD kinetics of Ac-(AAKA)4-NH2, in terms of the readings at 198 nm and 215 nm as a function of time, were monitored. The results are illustrated in FIG. 5. The plots were fit to bi-exponential functions, reflecting a fast phase (˜18 minutes) and a slow phase (>300 minutes). The fast phase may reflect the kinetics of hydration/dissolution of the peptide. […]

viscosity as a function of peptide and NaCl concentration ([1]; 5 mg/mL (3.5 mM) in 0.5 M and 1.0 M NaCl) | viscosity of hydrogel when salt is added with delay ([1]; 5 mg/mL, 2 M NaCl added after ~24 hours, versus NaCl added at time zero) | hydrogel formation on addition of NaCl (Hydrogel formation; 1-year-old sample, 5 mg/mL (3.5 mM)) | hydrogel formation on addition of NaCl (Hydrogel formation; fresh aqueous solution, peptide equal to or higher than 0.5 wt %, final NaCl higher than 1.0 M) | transition temperature of β-sheet content (Δε at 214.5 nm) [2] | Substance | fast phase of UV-CD kinetics (bi-exponential fit) [3] [min] | slow phase of UV-CD kinetics (bi-exponential fit) [3] [min] | hydrogel formation after dissolution (Hydrogel formation; ~15 mg/mL (~10.5 mM) in acidic D2O, pD 1.4)
more viscous gels | much less viscous and rigid hydrogel | did not result in hydrogel formation | rigid self-supporting hydrogel |  | AAKAAAKAAAKAAAKA [(AAKA)4] |  |  | 
 |  |  |  | around 320 K | Ac-AAKAAAKAAAKAAAKA-NH2 [Ac-(AAKA)4-NH2] | ~18 | > 300 | formed a hydrogel shortly after dissolution
